Reference: article PMC12263422, “Cryo-EM structure of the human THIK-1 K2P K^+ channel reveals a lower Y gate regulated by lipids and anesthetics” (Nature Structural & Molecular Biology, 2025)
Where “and” joins values, the source holds several entries; their conditions need not be identical. Equal entries are not always repeated. Where two headings read alike, the source gives them in different places.

Columns and labels:
Assay type in all cases: cell-based
THIK-1 Y102A = biological target: T1, THIK-1 Y102A (Homo sapiens, UniProt Q9HB14, Y102A); assay: Inside-out excised patch recordings, oocytes, THIK-1 Y102A mutant (lipid activation); conditions: read-out: Linoleic acid EC50
T1 construct: expressed in transfected cells; host or cells: Xenopus oocytes (mRNA injection)
Source text: Supplement 41594_2025_1497_MOESM2_ESM.xlsx, sheet "ExtData_Fig_S5f" | column: Linoleic acid EC50 (µM); Y102A

THIK-1 R258A = biological target: T2, THIK-1 R258A (Homo sapiens, UniProt Q9HB14, R258A); assay: Inside-out excised patch recordings, oocytes, THIK-1 R258A mutant (lipid activation); conditions: read-out: Linoleic acid EC50
T2 construct: expressed in transfected cells; host or cells: Xenopus oocytes (mRNA injection)
Source text: Supplement 41594_2025_1497_MOESM2_ESM.xlsx, sheet "ExtData_Fig_S5f" | column: Linoleic acid EC50 (µM); R258A

THIK-1 S109A = biological target: T3, THIK-1 S109A (Homo sapiens, UniProt Q9HB14, S109A); assay: Inside-out excised patch recordings, oocytes, THIK-1 S109A mutant (lipid activation); conditions: read-out: Linoleic acid EC50
T3 construct: expressed in transfected cells; host or cells: Xenopus oocytes (mRNA injection)
Source text: Supplement 41594_2025_1497_MOESM2_ESM.xlsx, sheet "ExtData_Fig_S5f" | column: Linoleic acid EC50 (µM); S109A

[1] = biological target: T4, R87D THIK-1 single channels (Homo sapiens, UniProt Q9HB14, R87D); assay: Single-channel excised patch recordings of R87D THIK-1 at -100 mV with halothane
T4 construct: expressed in transfected cells; host or cells: Xenopus oocytes (mRNA injection)
Procedure: Two-electrode voltage–clamp (TEVC) studies were performed in Xenopus oocytes. All animal use conformed to the Guide for the Care and Use of Laboratory Animals (NIH Publication 85–23), and all experiments using Xenopus toads were approved by the local ethics panels. Oocytes were stored at 17 °C in ND96 recording solution composed of (in mM): 96 NaCl, 2 KCl, 1.8 CaCl2, 1 MgCl2, 5 HEPES (pH 7.5 adjusted with NaOH and HCl), supplemented with Na-pyruvate (275 mg L^–1), theophylline (90 mg L^–1) and gentamicin (50 mg L^–1). Oocytes were injected with 1 ng mRNA for WT or mutant channels, and were incubated for 24–48 h at 17 °C. Two-electrode voltage clamp recordings were then performed as previously described[42],[43]. […] Currents were recorded with an EPC10 amplifier (HEKA Electronics) and sampled at 10 kHz or higher, with filtering set to 3 kHz (–3 dB) or higher, as appropriate for sampling rate. For measurements of GPCR activation, whole-cell currents were recorded for THIK-1 in transiently transfected HEK-293 cells. […] Single-channel currents were recorded with an Axopatch 200B amplifier through a Digidata 1440A digitizer (Molecular Devices). Data were filtered at 2 kHz and recorded at a 200-kHz sampling rate with the program Clampex (Molecular Devices). […]

THIK-1 F142A = biological target: T5, THIK-1 F142A (Homo sapiens, UniProt Q9HB14, F142A); assay: Inside-out excised patch recordings, oocytes, THIK-1 F142A mutant; conditions: read-out: TPenA IC50
T5 construct: expressed in transfected cells; host or cells: Xenopus oocytes (mRNA injection)
Source text: Supplement 41594_2025_1497_MOESM2_ESM.xlsx, sheet "ExtData_Fig_S2c" | column: Normalized currents

T3 sequence (Q9HB14 whole entry S109A): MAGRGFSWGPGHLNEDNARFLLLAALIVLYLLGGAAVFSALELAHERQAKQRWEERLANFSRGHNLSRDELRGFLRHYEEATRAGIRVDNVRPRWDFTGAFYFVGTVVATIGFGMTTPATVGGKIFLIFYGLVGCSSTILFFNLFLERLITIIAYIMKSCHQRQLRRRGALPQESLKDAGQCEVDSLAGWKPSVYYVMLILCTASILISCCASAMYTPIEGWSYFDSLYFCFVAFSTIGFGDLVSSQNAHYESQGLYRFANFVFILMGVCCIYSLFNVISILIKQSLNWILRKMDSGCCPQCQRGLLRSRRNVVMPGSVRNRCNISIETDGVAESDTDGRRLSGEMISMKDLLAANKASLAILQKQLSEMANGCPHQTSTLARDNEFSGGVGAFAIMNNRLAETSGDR
T5 sequence (Q9HB14 whole entry F142A): as the sequence (Q9HB14 whole entry S109A) above, with A109S, F142A counted along it
T1 sequence (Q9HB14 whole entry Y102A): as the sequence (Q9HB14 whole entry S109A) above, with Y102A, A109S counted along it
T2 sequence (Q9HB14 whole entry R258A): as the sequence (Q9HB14 whole entry S109A) above, with A109S, R258A counted along it
T4 sequence (Q9HB14 whole entry R87D): as the sequence (Q9HB14 whole entry S109A) above, with R87D, A109S counted along it

CCCCC/C=C\C/C=C\CCCCCCCC(=O)O [linoleic acid]
EC50 (THIK-1 Y102A; individual recordings): 104 µM and 133 µM and 58 µM and 58.2 µM and 59.6 µM and 297 µM and 47.2 µM and 49 µM and 36.2 µM
EC50 (THIK-1 Y102A; mean): 93.6 µM
EC50 (THIK-1 R258A; individual recordings): 24.9 µM and 30.3 µM and 69.4 µM and 74.3 µM and 47.4 µM and 62.2 µM and 21.9 µM and 23.3 µM and 47.9 µM and 30 µM
EC50 (THIK-1 R258A; mean): 43.2 µM
EC50 (THIK-1 S109A; individual recordings): 47.5 µM and 45.3 µM and 76.4 µM and 21.1 µM and 36.6 µM and 51 µM and 47.6 µM and 129 µM
EC50 (THIK-1 S109A; mean): 56.8 µM

FC(F)(F)C(Cl)Br (stereo not shown) [halothane]
decrease in activity ([1]; 0.4% halothane): 30%
decrease in activity ([1]; 1% halothane): 75%

CCCCC[N+](CCCCC)(CCCCC)CCCCC [TPenA, tetrapentylammonium]
IC50 (THIK-1 F142A; individual recordings): 239 µM and 187 µM and 498 µM and 367 µM
IC50 (THIK-1 F142A; mean): 323 µM
